{"source": "patent US11814364B2", "about": "“Pyridine N-oxide derivatives useful as factor XIa inhibitors” (Janssen Pharmaceutica NV, priority 2021, dated 2023)", "data": [{"molecular_target": "human plasma kallikrein (Homo sapiens, UniProt P03952)", "sequence (P03952 391-638 limits assumed)": "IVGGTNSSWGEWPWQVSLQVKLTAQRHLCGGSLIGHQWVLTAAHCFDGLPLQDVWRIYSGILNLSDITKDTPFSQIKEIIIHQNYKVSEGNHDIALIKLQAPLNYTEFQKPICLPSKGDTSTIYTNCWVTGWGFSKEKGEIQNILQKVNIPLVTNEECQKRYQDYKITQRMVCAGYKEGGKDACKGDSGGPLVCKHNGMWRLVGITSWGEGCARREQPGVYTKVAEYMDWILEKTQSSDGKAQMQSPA", "sequence (P03952 20-390 partner limits assumed)": "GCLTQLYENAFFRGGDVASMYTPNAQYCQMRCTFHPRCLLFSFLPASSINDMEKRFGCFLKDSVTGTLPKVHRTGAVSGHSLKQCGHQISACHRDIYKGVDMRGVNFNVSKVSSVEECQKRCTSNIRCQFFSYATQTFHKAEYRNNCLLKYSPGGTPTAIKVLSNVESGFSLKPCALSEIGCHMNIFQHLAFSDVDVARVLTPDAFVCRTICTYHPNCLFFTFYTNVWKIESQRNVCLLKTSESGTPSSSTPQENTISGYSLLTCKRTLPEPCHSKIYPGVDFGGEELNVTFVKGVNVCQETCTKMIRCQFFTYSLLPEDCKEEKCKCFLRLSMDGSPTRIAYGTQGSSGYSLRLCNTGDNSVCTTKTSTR", "experiment": "Kallikrein inhibition FLINT assay with quenched AMC peptide substrate Z-Gly-Pro-Arg-AMC (end point EP or kinetic KIN reads)", "type": "biochemical", "settings": "kinetic reads at 5 min intervals over 30 min; read-out: Kallikrein (KIN) IC50", "in_short": "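Enzyme and compound were preincubated 30 min before adding 50 μM AMC substrate in pH 7.5 Tris/NaCl/CaCl2/BSA/CHAPS buffer. AMC release was read at 30 min endpoint or every 5 min.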", "units": {"IC50": "nM"}, "values": [{"compound": "[O-][n+]1cc(-c2c(-n3cnnn3)ccc(Cl)c2F)ccc1C(Cn1cc(F)cn1)n1cc(-c2ccnc(C(F)(F)F)n2)cn1", "note": "(centres unmarked) [Example P469]", "IC50": 36.2}, {"compound": "Cc1ncn(-c2cnn(C(CCOC(F)F)c3ccc(-c4c(-n5cc(OC(F)F)nn5)ccc(Cl)c4F)c[n+]3[O-])c2)n1", "note": "(single isomer, unassigned) [Example P825]", "IC50": 588}, {"compound": "[O-][n+]1cc(-c2c(-n3cnnn3)ccc(Cl)c2F)ccc1C(C(O)c1ccccc1)n1cc(-c2ccnn2C(F)F)cn1", "note": "(single isomer, unassigned) [Example P713]", "IC50": 29.9}, {"compound": "Cn1ccc(CC(c2ccc(-c3c(-n4cnnn4)ccc(Cl)c3F)c[n+]2[O-])n2cc(-c3ccnc(C(F)(F)F)c3)cn2)n1", "note": "(single isomer, unassigned) [Example P378]", "IC50": 140}, {"compound": "[O-][n+]1cc(-c2c(-n3cnnn3)ccc(Cl)c2F)ccc1C(CC1CC1)n1cc(-c2ccn[nH]2)cn1", "note": "(centres unmarked) [Example P467]", "IC50": 780}, {"compound": "CCCC(c1ccc(-c2c(-n3cnnn3)ccc(Cl)c2F)c[n+]1[O-])n1cc(-c2ccc(NC(=O)OC)cc2)cn1", "note": "(single isomer, unassigned) [Example P158]", "IC50": 45.1}, {"compound": "[O-][n+]1cc(-c2cc(Cl)ccc2-n2cnnn2)ccc1C(Cn1cc2c(n1)COCC2)n1cc(-c2ccnc(C(F)(F)F)c2)cn1", "note": "(centres unmarked) [Example P388]", "IC50": 126}, {"compound": "[2H]C([2H])([2H])n1ncc(NC(=O)C2CC2)c1-c1cnn(C(CCOC(F)F)c2ccc(-c3c(-n4cc(Cl)nn4)ccc(Cl)c3F)c[n+]2[O-])c1", "note": "(single isomer, unassigned) [Example P810]", "IC50": "~383"}, {"compound": "[O-][n+]1cc(F)c(-c2cnn(C(CC3CC3)c3ccc(-c4c(-n5cnnn5)ccc(Cl)c4F)c[n+]3[O-])c2)c(Cl)c1", "note": "(single isomer, unassigned) [Example P862]", "IC50": 148}, {"compound": "[O-][n+]1cc(-c2c(-n3cnnn3)ccc(Cl)c2F)ccc1C(Cn1cc(F)c(COC(F)F)n1)n1cc(-c2ccnc(C(F)(F)F)c2)cn1", "note": "(single isomer, unassigned) [Example P571]", "IC50": 134}, {"compound": "COC(=O)Nc1ccc(-c2cnn(C(CC(C)C)c3ccc(-c4c(-n5cnnn5)ccc(Cl)c4F)c[n+]3[O-])c2)cc1", "note": "(single isomer, unassigned) [Example P181]", "IC50": 67.7}, {"compound": "COc1cc(C(Cc2ccn(C(F)F)n2)n2cc(-c3ccc(C(=O)O)c(F)c3)cn2)[n+]([O-])cc1-c1c(C(F)F)ccc(Cl)c1F", "note": "(centres unmarked) [Example Q74]", "IC50": 11}, {"compound": "Cn1nnc(F)c1-c1cnn([C@H](Cc2ccc(C(F)(F)F)nc2)c2ccc(-c3c(-n4cnnn4)ccc(Cl)c3F)c[n+]2[O-])c1", "note": "[Example P780]", "IC50": 17.7}, {"compound": "COC(=O)Nc1ccc(-c2cnn(C(Cc3cccc(OC)c3)c3ccc(-c4c(-n5cnnn5)ccc(Cl)c4F)c[n+]3[O-])c2)cc1", "note": "(single isomer, unassigned) [Example P207]", "IC50": 2.9}, {"compound": "O=C(NC1CC1)c1ccc(-c2cnn(C(CC3CCCCO3)c3ccc(-c4c(-n5cnnn5)ccc(Cl)c4F)c[n+]3[O-])c2)cc1", "note": "(single isomer, unassigned) [Example P80]", "IC50": 53.3}, {"compound": "[2H]C([2H])(CC(c1ccc(-c2cc(Cl)ccc2C#N)c[n+]1[O-])n1cc(-c2ncnn2C(F)F)cn1)OC(F)F", "note": "(single isomer, unassigned) [Example Q53]", "IC50": 222}, {"compound": "COCCC(c1ccc(-c2c(-n3cnnn3)ccc(Cl)c2F)c[n+]1[O-])n1cc(-c2ccc(NC(=O)OC)cc2)cn1", "note": "(single isomer, unassigned) [Example P84]", "IC50": 14.5}, {"compound": "NC(=O)c1ccc(-c2cnn(C(Cc3ccn(C(F)F)n3)c3ccc(-c4c(-n5cc(Cl)nn5)ccc(Cl)c4F)c[n+]3[O-])c2)cc1F", "note": "(centres unmarked) [Example P894]", "IC50": 2.5}, {"compound": "COC(=O)Nc1ccc(-c2cnn(C(CC3CCC(C)CC3)c3ccc(-c4c(-n5cnnn5)ccc(Cl)c4F)c[n+]3[O-])c2)cc1", "note": "(centres unmarked) [Example P129]", "IC50": 136}, {"compound": "Cn1nnc(F)c1-c1cnn(C(CCOC(F)F)c2ccc(-c3c(-c4cnco4)ccc(Cl)c3F)c[n+]2[O-])c1", "note": "(centres unmarked) [Example P846]", "IC50": 238}, {"compound": "Cn1cc(-c2cnn([C@H](CCOC(F)F)c3ccc(-c4c(-n5cc(C(F)(F)F)nn5)ccc(Cl)c4F)c[n+]3[O-])c2)nn1", "note": "[Example P760]", "IC50": 454}, {"compound": "[O-][n+]1cc(-c2c(-n3cnnn3)ccc(Cl)c2F)ccc1C(Cc1nn(CC(F)(F)F)cc1F)n1cc(-c2ccnc(C(F)(F)F)c2)cn1", "note": "(centres unmarked) [Example P741]", "IC50": 22.1}, {"compound": "[O-][n+]1cc(-c2c(-n3cnnn3)ccc(Cl)c2F)ccc1C(Cn1cc(C(F)(F)F)cn1)n1cc(-c2ccnc(F)c2)cn1", "note": "(centres unmarked) [Example P331]", "IC50": 28.5}, {"compound": "NC(=O)c1ccc(-c2cnn(C(CCOC(F)F)c3ccc(-c4c(-n5cc(C(F)(F)F)nn5)ccc(Cl)c4F)c[n+]3[O-])c2)cc1F", "note": "(centres unmarked) [Example P844]", "IC50": 31.3}, {"compound": "O=C(O)c1ccc(-c2cnn(C(CCOC(F)F)c3ccc(-c4c(-n5cc(Cl)nn5)ccc(Cl)c4F)c[n+]3[O-])c2)cc1F", "note": "(single isomer, unassigned) [Example P881]", "IC50": 7.3}, {"compound": "CN(CC(c1ccc(-c2c(-n3cnnn3)ccc(Cl)c2F)c[n+]1[O-])n1cc(-c2ccncc2)cn1)C(=O)c1ccccc1", "note": "(centres unmarked) [Example P296]", "IC50": 36.4}, {"compound": "NC(=O)c1ccc(-c2cnn(C(Cc3ccn(C(F)F)n3)c3ccc(-c4c(-n5cc(Cl)nn5)ccc(Cl)c4F)c[n+]3[O-])c2)cc1F", "note": "(single isomer, unassigned) [Example P893]", "IC50": 20.5}, {"compound": "COC(=O)Nc1ccc(-c2cnn(C(Cn3cccn3)c3ccc(-c4c(-n5cnnn5)ccc(Cl)c4F)c[n+]3[O-])c2)cc1", "note": "(centres unmarked) [Example P214]", "IC50": 6.3}, {"compound": "COC(=O)Nc1ccc(-c2cnn(C(CCOC(C)C)c3ccc(-c4c(-n5cnnn5)ccc(Cl)c4F)c[n+]3[O-])c2)cc1", "note": "(single isomer, unassigned) [Example P192]", "IC50": 24}, {"compound": "COc1cc(C(Cc2ccn(C(F)F)n2)n2cc(-c3ccc(C(N)=O)c(F)c3)cn2)[n+]([O-])cc1-c1c(C(F)F)ccc(Cl)c1F", "note": "(centres unmarked) [Example Q75]", "IC50": 10}, {"compound": "[O-][n+]1cc(-c2c(-n3cnnn3)ccc(Cl)c2F)ccc1C(CCOC(F)(F)F)n1cc(-c2ccncn2)cn1", "note": "(centres unmarked) [Example P366]", "IC50": 151}, {"compound": "[O-][n+]1ccc(-c2cnn(C(Cn3cccn3)c3ccc(-c4c(-n5cnnn5)ccc(Cl)c4F)c[n+]3[O-])c2)cc1C(F)F", "note": "(single isomer, unassigned) [Example P334]", "IC50": 29}, {"compound": "CN(CC(c1ccc(-c2c(-n3cnnn3)ccc(Cl)c2F)c[n+]1[O-])n1cc(-c2cc[n+]([O-])cc2)cn1)C(=O)Cc1ccccc1", "note": "(centres unmarked) [Example P345]", "IC50": 152}, {"compound": "COC(=O)Nc1ccc(-c2cnn(C(CC3CCCC3)c3ccc(-c4c(-n5cnnn5)ccc(Cl)c4F)c[n+]3[O-])c2)cc1", "note": "(centres unmarked) [Example P110]", "IC50": 123}, {"compound": "CN1CCN(CC(c2ccc(-c3c(-n4cnnn4)ccc(Cl)c3F)c[n+]2[O-])n2cc(-c3ccnc(C(F)(F)F)c3)cn2)C1=O", "note": "(centres unmarked) [Example P432]", "IC50": 2.8}, {"compound": "O=C(O)c1ccc(-c2cnn(C(CN3CCCC3=O)c3ccc(-c4cc(Cl)ccc4-n4cnnn4)c[n+]3[O-])c2)cc1", "note": "(centres unmarked) [Example P163]", "IC50": 26.9}, {"compound": "O=C(NC1CC1)c1ccc(-c2cnn(C(Cc3ccc(F)cc3)c3ccc(-c4c(-n5cnnn5)ccc(Cl)c4F)c[n+]3[O-])c2)cc1", "note": "(centres unmarked) [Example P125]", "IC50": 3.3}, {"compound": "[O-][n+]1cc(-c2c(-n3cnnn3)ccc(Cl)c2F)ccc1C(C(O)c1ccccc1)n1cc(-c2ccnn2C(F)F)cn1", "note": "(single isomer, unassigned) [Example P719]", "IC50": 516}, {"compound": "[O-][n+]1cc(-c2c(-n3cc(Cl)nn3)ccc(Cl)c2F)ccc1[C@@H](Cn1cc(OC(F)F)cn1)n1cc(-c2cn(C(F)F)nn2)cn1", "note": "[Example P655]", "IC50": 734}, {"compound": "[O-][n+]1cc(-c2c(-n3cnnn3)ccc(Cl)c2F)ccc1C(Cn1cccn1)n1cc(-c2ccncc2)cn1", "note": "(centres unmarked) [Example P269]", "IC50": 6.1}, {"compound": "CC1CC1CC(c1ccc(-c2c(-n3cnnn3)ccc(Cl)c2F)c[n+]1[O-])n1cc(-c2ncnn2C(F)F)cn1", "note": "(centres unmarked) [Example P766]", "IC50": "> 100"}, {"compound": "[O-][n+]1cc(-c2c(-n3cnnn3)ccc(Cl)c2F)ccc1C(Cn1cc(-c2ccccn2)cn1)n1cc(-c2ccccn2)cn1", "note": "(single isomer, unassigned) [Example P515]", "IC50": 144}, {"compound": "Cc1cc(-c2cnn(C(Cn3cccn3)c3ccc(-c4c(-n5cnnn5)ccc(Cl)c4F)c[n+]3[O-])c2)ccn1", "note": "(centres unmarked) [Example P310]", "IC50": 9}, {"compound": "N#Cc1cc(-c2cnn(C(CN3CCCC3=O)c3ccc(-c4c(-n5cnnn5)ccc(Cl)c4F)c[n+]3[O-])c2)cc[n+]1[O-]", "note": "(centres unmarked) [Example P466]", "IC50": 231}, {"compound": "Cn1nnc(F)c1-c1cnn(C(Cc2ccn(C(F)F)n2)c2ccc(-c3c(-n4cc(Cl)nn4)ccc(Cl)c3F)c[n+]2[O-])c1", "note": "(centres unmarked) [Example P795]", "IC50": 32.6}, {"compound": "CC(C)C(=O)N(C)CC(c1ccc(-c2c(-n3cnnn3)ccc(Cl)c2F)c[n+]1[O-])n1cc(-c2ccnc(C(F)(F)F)c2)cn1", "note": "(single isomer, unassigned) [Example P421]", "IC50": 41.1}, {"compound": "COc1cc(C(CC2CC2)n2cc(-c3sc(C(N)=O)cc3C)cn2)[n+]([O-])cc1-c1cc(Cl)ccc1-n1cc(C(F)(F)F)nn1", "note": "(single isomer, unassigned) [Example P958]", "IC50": 13.1}, {"compound": "NC(=O)c1ccn(CC(c2ccc(-c3c(-n4cnnn4)ccc(Cl)c3F)c[n+]2[O-])n2cc(-c3ccnc(C(F)(F)F)c3)cn2)n1", "note": "(single isomer, unassigned) [Example P448]", "IC50": 9.4}, {"compound": "[O-][n+]1cc(-c2c(-n3cnnn3)ccc(Cl)c2F)ccc1[C@@H](Cc1ccc(F)cc1)n1cc(-c2ccnn2C(F)F)cn1", "note": "[Example P568]", "IC50": 3.1}, {"compound": "[O-][n+]1cc(-c2c(-n3cc(Br)nn3)ccc(Cl)c2F)ccc1[C@@H](CCOC(F)F)n1cc(-c2ncnn2C(F)F)cn1", "note": "[Example P788]", "IC50": 17.4}, {"compound": "Cn1cc(CC(c2ccc(-c3c(-n4cnnn4)ccc(Cl)c3F)c[n+]2[O-])n2cc(-c3ccnc(C#N)c3)cn2)cn1", "note": "(centres unmarked) [Example P408]", "IC50": 17.4}, {"compound": "[O-][n+]1cc(-c2cc(Cl)ccc2-n2cnnn2)ccc1C(Cc1ccc(Cl)cc1)n1cc(-c2ccncc2)cn1", "note": "(centres unmarked) [Example P171]", "IC50": 15.3}, {"compound": "[O-][n+]1cc(-c2c(-n3cnnn3)ccc(Cl)c2F)ccc1[C@@H](Cc1ccc(F)cc1)n1cc(-c2cnnn2C(F)F)cn1", "note": "[Example P599]", "IC50": 4}]}]}
